Consider five compounds from PMC6362004, “Minor sequence modifications in temporin B cause drastic changes in antibacterial potency and selectivity by fundamentally altering membrane activity” (Scientific Reports, 2019).

In assay [1] the test system is EMR Staphylococcus aureus-16 NCTC 13277. The format is cell-based. The conditions noted are these: NCTC 13277, 18 h. As to the method: (§1) The antibacterial activity of the peptides studied was assessed through a modified two-fold broth microdilution assay, as described before. Briefly, a two-fold dilution of peptide stock solutions was performed in either non-cation adjusted Müller-Hinton broth (MHB) or Tryptic Soy broth (TSB) in a 96-well polypropylene microtiter plate. Then, 100 µl of bacterial suspension (back diluted from overnight cultures to an A600 of 0.01) were added to 100 µl of peptide solution in each well of the plate. Growth and sterility controls were present for each experiment. The plate was incubated at 37 °C for 18 hours without shaking and the MIC was defined as the lowest concentration where no visible growth could be detected by measuring the absorbance (A600) on an Omega plate reader.

Assay [2] deals with VR Enterococcus faecalis NCTC 12201. It is filed as cell-based. The conditions noted are these: NCTC 12201, 18 h. As for the experimental part: as §1
The test system of assay [3] is VS Enterococcus faecalis NCTC 775. The format is cell-based. The settings on record: NCTC 775, 18 h. As to the method:
as §1

Assay [4] has as its system EMR Staphylococcus aureus−15 NCTC 13616. The format is cell-based. The settings on record: NCTC 13616, 18 h. As to the method: as §1
Assay [5] has as its system Pseudomonas aeruginosa NCTC 13437. It is filed as cell-based. The conditions noted are these: NCTC 13437, 18 h. As for the experimental part:
as §1

Assay [6] deals with Pseudomonas aeruginosa PAO1. It is filed as cell-based. The conditions noted are these: PAO1, 18 h. As for the experimental part: as §1
In assay [7] the test system is Acinetobacter baumanii AYE. The format is cell-based. The conditions noted are these: 18 h. As to the method: as §1
Assay [8] deals with MS Staphylococcus aureus NCTC 6571. It is filed as cell-based. The conditions noted are these: NCTC 6571, 18 h. As for the experimental part:
as §1

The subject of assay [9] is E. coli cytoplasmic membrane. The conditions noted are these: cited from earlier work. The text has this: Here we investigated whether a combined biophysical approach is capable of discriminating the species specific antibacterial mechanisms of action between three analogues of temporin B. Although structures for the three peptides solved in anionic SDS were noticeably different, when applied to model membranes, little difference in conformation could be discerned in the steady-state. To address this, we developed an approach using the Port-a-Patch® tool from Nanion Technologies (Munich, Germany) and correlated the findings obtained from patch-clamp analysis to the primary sequence and the biophys ...

Another assay deals with Gram-negative bacteria. The conditions noted are these: cited from earlier work.

Converted amounts (≈) assume the structure as drawn. Peptide text beside a SMILES is read from it. Some results are limits rather than exact numbers.

With `CC[C@H](C)[C@H](NC(=O)[C@@H]1CCCN1C(=O)[C@H](CC(C)C)NC(=O)[C@H](CC(C)C)NC(=O)[C@H](CCCCN)NC(=O)[C@@H](N)CCCCN)C(=O)N[C@H](C(=O)N[C@@H](C)C(=O)N[C@@H](CC(N)=O)C(=O)N[C@@H](CC(C)C)C(=O)N[C@@H](CC(C)C)C(=O)N[C@@H](CCCCN)C(=O)N[C@@H](CO)C(=O)N[C@@H](CC(C)C)C(=O)N[C@@H](CC(C)C)C(N)=O)C(C)C` [Temporin B KKG6A] (H-KKLLPIVANLLKSLL-NH2), the “MIC, peptide concentration” value in [1], in assay [2], in [3], in assay [4] and in assay [5] was >128 µg/mL throughout.

For `CC[C@H](C)[C@H](NC(=O)[C@@H]1CCCN1C(=O)[C@H](CC(C)C)NC(=O)[C@@H](N)Cc1ccccc1)C(=O)N[C@H](C(=O)NCC(=O)N[C@@H](CC(C)C)C(=O)N[C@@H](CC(C)C)C(=O)N[C@@H](CCCCN)C(=O)N[C@@H](CO)C(=O)N[C@@H](CC(C)C)C(=O)N[C@@H](CC(C)C)C(=O)N[C@@H](CCCCN)C(N)=O)C(C)C` [Temporin B L1FK] (H-FLPIVGLLKSLLK-NH2), the “MIC, peptide concentration” value turned out to be 16 µg/mL (≈ 11.1 µM) in assay [1], 16 µg/mL (≈ 11.1 µM) in assay [4], 128 µg/mL (≈ 88.9 µM) in [6] and 8 µg/mL (≈ 5.56 µM) in assay [7].

For `CC[C@H](C)[C@H](NC(=O)[C@@H]1CCCN1C(=O)[C@H](CC(C)C)NC(=O)[C@@H](N)CC(C)C)C(=O)N[C@H](C(=O)NCC(=O)N[C@@H](CC(N)=O)C(=O)N[C@@H](CC(C)C)C(=O)N[C@@H](CC(C)C)C(=O)N[C@@H](CCCCN)C(=O)N[C@@H](CO)C(=O)N[C@@H](CC(C)C)C(=O)N[C@@H](CC(C)C)C(N)=O)C(C)C` [Temporin B] (H-LLPIVGNLLKSLL-NH2), the results for the “MIC, peptide concentration” value in assay [8], in assay [1] and in [6] were 16 µg/mL (≈ 11.5 µM), 32 µg/mL (≈ 23 µM) and >128 µg/mL, respectively.

LL-37: human antimicrobial peptide: in assay [9], the “Time to permeabilization of the E. coli cytoplasmic membrane and induction of oxidative stress” value is listed as “around 25 minutes”.

What is called MIC is the smallest concentration in the dilution series that meets the test's criterion for growth inhibition. In the case of temporin L, the minimal inhibitory concentration (MIC) with Gram-negative bacteria was 2 to 20 µM.
